Test results published in patent US6737383B1, “Herbicidal oxadiazolidines” (priority 1999, dated 2004).

Assays:
crabgrass = assay: Test B pre/postemergence crabgrass; type: in vivo, Digitaria sanguinalis
Method in brief: (§1)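 Herbicidal effect was estimated by eye on a ten-point control scale after plants spent twelve to sixteen days in a greenhouse following soil or foliar treatment. Foliar sprays targeted plants at one to four leaves; all doses were formulated in a non-phytotoxic solvent with surfactant.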

giant foxtail = assay: Test B pre/postemergence giant foxtail; type: in vivo, Setaria faberii
Method in brief: as §1

wheat = assay: Test B pre/postemergence wheat; type: in vivo, Triticum aestivum
Method in brief: as §1

duck salad = assay: Test B flood test duck salad; type: in vivo, Heteranthera limosa
Method in brief: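 Each value is a visual injury score relative to controls, with 10 meaning complete control and 0 no effect. Evaluation took place twelve to sixteen days after the 2-leaf-stage plants were treated and kept in the greenhouse.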

winter wheat [1] = assay: Test E winter wheat; type: in vivo, Triticum aestivum; conditions: Postemergence; for Wheat (winter) plant response rating: Rate 250 g/ha
Method in brief: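 Plants were grown under normal greenhouse practice; for postemergence, in sandy loam soil mixed 60:40 with potting mix, treated at the 1- to 4-leaf stage. The compound was in a non-phytotoxic solvent carrying a surfactant. After roughly 21 to 28 days plants were scored visually against untreated plants.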

blackgrass = assay: Test E blackgrass; type: in vivo, Alopecurus myosuroides; conditions: Preemergence; for Blackgrass plant response rating (0 to 100 scale): Rate 250 g/ha
green foxtail = assay: Test E green foxtail; type: in vivo, Setaria viridis; conditions: Preemergence; for Green foxtail plant response rating (0 to 100 scale): Rate 250 g/ha
Italian ryegrass = assay: Test E Italian ryegrass; type: in vivo, Lolium multiflorum; conditions: Preemergence; for I. Ryegrass plant response rating (0 to 100 scale): Rate 250 g/ha
winter wheat [2] = assay: Test E winter wheat; type: in vivo, Triticum aestivum; conditions: Preemergence; for Wheat (winter) plant response rating (0 to 100 scale): Rate 250 g/ha
wild oat = assay: Test E wild oat; type: in vivo, Avena fatua; conditions: Preemergence; for Wild oat plant response rating (0 to 100 scale): Rate 250 g/ha
winter barley = assay: Test E winter barley; type: in vivo, Hordeum vulgare; conditions: Preemergence; for Barley (winter) plant response rating (0 to 100 scale): Rate 250 g/ha
[3] = Preemergence, Rate 62 g/ha, scale of 0 to 10 where 0 is no effect and 10 is complete control
[4] = Preemergence, Rate 250 g/ha, scale of 0 to 10 where 0 is no effect and 10 is complete control
[5] = Preemergence, Rate 500 g/ha, scale of 0 to 10 where 0 is no effect and 10 is complete control
[6] = Rate 62 g/ha, Postemergence, scale 0 to 10 (0 no effect, 10 complete control)
[7] = Rate 125 g/ha, Postemergence, scale of 0 to 10 where 0 is no effect and 10 is complete control
[8] = Rate 125 g/ha, Preemergence, scale of 0 to 10 where 0 is no effect and 10 is complete control
[9] = Rate 250 g/ha, Postemergence, scale of 0 to 10 where 0 is no effect and 10 is complete control
[10] = Rate 62 g/ha, headed Pre-emergence (flood test species), scale 0 to 10 (0 no effect, 10 complete control)
[11] = Rate 125 g/ha, Pre-emergence, flood test species, scale 0 to 10 where 0 is no effect and 10 is complete control
[12] = 0 to 100 scale where 0 is no effect and 100 is complete control
[13] = Rate 1000 g/ha, 0 to 100 scale, 0 no effect, 100 complete control
[14] = Rate 500 g/ha, 0 to 100 scale (0 no effect, 100 complete control)
[15] = Preemergence, Rate 31 g/ha, visual rating, scale 0 to 10 (0 no effect, 10 complete control)
[16] = Rate 16 g/ha, Postemergence, scale 0 to 10, 0 no effect, 10 complete control
[17] = Rate 16 g/ha, Preemergence, scale 0 to 10, 0 no effect, 10 complete control
[18] = Rate 31 g/ha, Postemergence, scale 0 to 10
[19] = Rate 31 g/ha, 0 to 100 scale, 0 no effect, 100 complete control
[20] = Rate 62 g/ha, 0 to 100 scale, 0 no effect, 100 complete control
[21] = Rate 125 g/ha, 0 to 100 scale (0 no effect, 100 complete control)

`CC(C)N(C(=O)n1oc(=O)n(C2CCCC2)c1=O)c1ccc(F)cc1F` [Compound 284] was tested, and the “Crabgrass plant response rating” value (crabgrass; [3]) was 4, the “Crabgrass plant response rating” value (crabgrass; [4]) was 8 and the “Plant response rating, Crabgrass” value (crabgrass; [5]) was 9. The “Crabgrass plant response rating” value (crabgrass; [6]) was 0, the “Crabgrass plant response rating” value (crabgrass; [7]) was 1 and the “Crabgrass plant response rating” value (crabgrass; [8]) was 4. The “Plant response rating, Crabgrass” value (crabgrass; [9]) was 1, the “Giant foxtail plant response rating” value (giant foxtail; [3]) was 9 and the “Giant foxtail plant response rating” value (giant foxtail; [4]) was 9. The “Plant response rating, Giant foxtail” value (giant foxtail; [5]) was 10, the “Giant foxtail plant response rating” value (giant foxtail; [6]) was 0 and the “Giant foxtail plant response rating” value (giant foxtail; [7]) was 2. The “Giant foxtail plant response rating” value (giant foxtail; [8]) was 9, the “Plant response rating, Giant foxtail” value (giant foxtail; [9]) was 3 and the “Wheat plant response rating” value (wheat; [3]) was 0. The “Wheat plant response rating” value (wheat; [4]) was 0, the “Plant response rating, Wheat” value (wheat; [5]) was 0 and the “Wheat plant response rating” value (wheat; [6]) was 0. The “Wheat plant response rating” value (wheat; [7]) was 0, the “Wheat plant response rating” value (wheat; [8]) was 0 and the “Plant response rating, Wheat” value (wheat; [9]) was 0. The “Ducksalad plant response rating” value (duck salad; [10]) was 0, the “Ducksalad plant response rating” value (duck salad; [11]) was 0 and the “Ducksalad plant response rating” value (duck salad; Rate 250 g/ha, Pre-emergence, flood-test species, scale 0 to 10, 0 is no effect, 10 is complete control) was 0. The “Ducksalad plant response rating” value (duck salad; Rate 500 g/ha, Pre-emergence, flood test species, scale 0 to 10 (0 no effect, 10 complete control)) was 0, the “Plant response rating, Wheat (winter)” value (winter wheat [1]; Rate 1000 g/ha, 0 to 100 scale where 0 is no effect and 100 is complete control) was 85 and the “Wheat (winter) plant response rating” value (winter wheat [1]; [12]) was 60. For the same molecule, the “Plant response rating, Wheat (winter)” value (winter wheat [1]; Rate 500 g/ha, 0 to 100 scale, 0 is no effect, 100 is complete control) was 20, the “Blackgrass plant response rating (0 to 100 scale)” value (blackgrass) was 65 and the “Plant response rating, Blackgrass” value (blackgrass; [13]) was 70. For the same molecule, the “Green foxtail plant response rating (0 to 100 scale)” value (green foxtail) was 100, the “Plant response rating, Green foxtail” value (green foxtail; [14]) was 100 and the “Plant response rating, Green foxtail” value (green foxtail; [13]) was 100. For the same molecule, the “I. Ryegrass plant response rating (0 to 100 scale)” value (Italian ryegrass) was 85, the “Plant response rating, I. Ryegrass” value (Italian ryegrass; [14]) was 70 and the “Plant response rating, I. Ryegrass” value (Italian ryegrass; [13]) was 85. For the same molecule, the “Wheat (winter) plant response rating (0 to 100 scale)” value (winter wheat [2]) was 70, the “Plant response rating, Wheat (winter)” value (winter wheat [2]; [14]) was 70 and the “Plant response rating, Wheat (winter)” value (winter wheat [2]; [13]) was 80. For the same molecule, the “Wild oat plant response rating (0 to 100 scale)” value (wild oat) was 70, the “Plant response rating, Wild oat” value (wild oat; [14]) was 60 and the “Plant response rating, Wild oat” value (wild oat; [13]) was 70. For the same molecule, the “Barley (winter) plant response rating (0 to 100 scale)” value (winter barley) was 50, the “Plant response rating, Barley (winter)” value (winter barley; [14]) was 30 and the “Plant response rating, Barley (winter)” value (winter barley; [13]) was 60.
`CC(C)N(C(=O)n1oc(=O)n(CCCF)c1=O)c1ccc(F)cc1` [Compound 287] was tested, and the “Crabgrass plant response rating” value (crabgrass; [15]) was 2, the “Crabgrass plant response rating” value (crabgrass; [3]) was 8 and the “Crabgrass plant response rating” value (crabgrass; [16]) was 0. For the same molecule, the “Crabgrass plant response rating” value (crabgrass; [17]) was 0, the “Crabgrass plant response rating” value (crabgrass; [18]) was 2 and the “Crabgrass plant response rating” value (crabgrass; [6]) was 2. For the same molecule, the “Crabgrass plant response rating” value (crabgrass; [7]) was 5, the “Crabgrass plant response rating” value (crabgrass; [8]) was 9 and the “Giant foxtail plant response rating” value (giant foxtail; [15]) was 9. For the same molecule, the “Giant foxtail plant response rating” value (giant foxtail; [3]) was 10, the “Giant foxtail plant response rating” value (giant foxtail; [16]) was 0 and the “Giant foxtail plant response rating” value (giant foxtail; [17]) was 8. For the same molecule, the “Giant foxtail plant response rating” value (giant foxtail; [18]) was 2, the “Giant foxtail plant response rating” value (giant foxtail; [6]) was 7 and the “Giant foxtail plant response rating” value (giant foxtail; [7]) was 8. The “Giant foxtail plant response rating” value (giant foxtail; [8]) was 10, the “Wheat plant response rating” value (wheat; [15]) was 0 and the “Wheat plant response rating” value (wheat; [3]) was 0. The “Wheat plant response rating” value (wheat; [16]) was 0, the “Wheat plant response rating” value (wheat; [17]) was 0 and the “Wheat plant response rating” value (wheat; [6]) was 5. The “Wheat plant response rating” value (wheat; [7]) was 5, the “Wheat plant response rating” value (wheat; [8]) was 7 and the “Ducksalad plant response rating” value (duck salad; Rate 16 g/ha, head printed Pre-emergence (flood test species), scale 0 to 10, 0 no effect, 10 complete control) was 0. The “Ducksalad plant response rating” value (duck salad; Rate 31 g/ha, Pre-emergence section (flood test species), scale 0 to 10) was 0, the “Ducksalad plant response rating” value (duck salad; [10]) was 0 and the “Ducksalad plant response rating” value (duck salad; [11]) was 0. The “Plant response rating, Wheat (winter)” value (winter wheat [1]; [19]) was 30, the “Plant response rating, Wheat (winter)” value (winter wheat [1]; Rate 62 g/ha, 0 to 100 scale) was 30 and the “Plant response rating, Wheat (winter)” value (winter wheat [1]; Rate 125 g/ha, 0 to 100 scale, 0 is no effect, 100 is complete control) was 40. The “Wheat (winter) plant response rating” value (winter wheat [1]; [12]) was 50, the “Plant response rating, Blackgrass” value (blackgrass; [19]) was 30 and the “Plant response rating, Blackgrass” value (blackgrass; [20]) was 30. The “Plant response rating, Blackgrass” value (blackgrass; [21]) was 50, the “Blackgrass plant response rating (0 to 100 scale)” value (blackgrass) was 60 and the “Plant response rating, Green foxtail” value (green foxtail; [19]) was 30. For the same molecule, the “Plant response rating, Green foxtail” value (green foxtail; [20]) was 60, the “Plant response rating, Green foxtail” value (green foxtail; [21]) was 60 and the “Green foxtail plant response rating (0 to 100 scale)” value (green foxtail) was 90. The “Plant response rating, I. Ryegrass” value (Italian ryegrass; [19]) was 20, the “Plant response rating, I. Ryegrass” value (Italian ryegrass; [20]) was 50 and the “Plant response rating, I. Ryegrass” value (Italian ryegrass; [21]) was 55. For the same molecule, the “I. Ryegrass plant response rating (0 to 100 scale)” value (Italian ryegrass) was 60, the “Plant response rating, Wheat (winter)” value (winter wheat [2]; [19]) was 40 and the “Plant response rating, Wheat (winter)” value (winter wheat [2]; [20]) was 30. For the same molecule, the “Plant response rating, Wheat (winter)” value (winter wheat [2]; [21]) was 45, the “Wheat (winter) plant response rating (0 to 100 scale)” value (winter wheat [2]) was 50 and the “Plant response rating, Wild oat” value (wild oat; [19]) was 0. The “Plant response rating, Wild oat” value (wild oat; [20]) was 30, the “Plant response rating, Wild oat” value (wild oat; [21]) was 70 and the “Wild oat plant response rating (0 to 100 scale)” value (wild oat) was 60. The “Plant response rating, Barley (winter)” value (winter barley; [19]) was 30, the “Plant response rating, Barley (winter)” value (winter barley; [20]) was 20 and the “Plant response rating, Barley (winter)” value (winter barley; [21]) was 30. The “Barley (winter) plant response rating (0 to 100 scale)” value (winter barley) was 35.
